Data published in US10119958B2, “Arrays and methods for guided cell patterning” (University of Washington, priority 2007, dated 2018).
Where no end group is shown, it is not given here.

Experiments:
[1] = tested on: HUVE cells; assay: Quantification of HUVE cell adhesion on gold-patterned silicon substrates (cell coverage, single cell ratio); format: cell-based, human; conditions: HUVE cells cultured 18 hours; 20 μm gold squares; 378 cell adhesion regions
Description: Thus, quantification of single cell coverage is necessary for understanding the capability of this peptide-mediated cell adhesion process. HUVE cells were cultured on fibronectin and peptide modified platforms in standard culture media for 18 hours and stained with DAPI for cell nuclei to emit blue fluorescence. Fluorescence microscopy was used to identify single or multiple cells on gold square-based cell adhesion regions. Cell coverage and single cell population for each type of surface were quantified from 378 gold square-based cell adhesion regions (3 samples×2 areas of interest with 63 cell adhesion regions per area). Cell coverage was calculated from the ratio of gold square-based cell adhesion regions covered with cells to the total number of the cell adhesion regions in the area of interest, and single cell ratio was obtained by dividing the number of gold square-based cell adhesion regions covered with single cells to the total number of cell adhesion regions covered with cells (single or multiple). Exemplary images of adhered cells on three model platforms are shown in FIGS. 9A-D, and quantification results are shown in Table 1. As expected, the fibronectin and KREDVY modified surfaces have higher cell coverage than the REDVY modified surface due to larger number binding domains available on the former two surfaces than on the latter. Both peptide modified surfaces have much higher single cell ratios than the fibronectin modified surface. Clearly, the KREDVY modified surface is the best candidate for single cell patterning in light of both cell coverage and single cell ratio. As a side note, for electrical recording, it is easy to distinguish between single and multiple cells, allowing either type of site to be observed selectively.
HUVE cells were cultured in EGM-2 medium supplemented with bovine brain extract (BBE), hydrocortisone, hFGF-B, VEGF, R3-IGF-1, ascorbic acid, heparin, FBS, hEGF, and GA-1000. The final serum concentration was 2%. Cells were seeded on culture flasks at passage 1 and the medium was changed after 24 hours. At 70% confluency, cells were subcultured as follows. After aspiration from culture flasks, cells were rinsed with 2-3 ml of HEPES-BSS buffer solution for 3 times, followed by incubation with 2 ml of trypsin/EDTA solution. The trypsinization process continued until about 90% of the cells were collected. After cells were released, the trypsin was neutralized in the flask with 4 ml of TNS, and the detached cells were transferred to a 15-ml sterile centrifuge tube. The harvested cells were centrifuged at 220 g for 5 minutes. Cells were diluted in growth medium. Cells at a concentration of 1.5×10^5 cells/ml were seeded on the substrates. The substrates were incubated for 18 hours before fixation with a mixture of 2% glutaraldehyde and paraformaldehyde in phosphate buffer solution for optical microscopy and with 4% paraformaldehyde for fluorescence microscopy.

[2] = tested on: HUVE cells; assay: Cell viability assay (apoptosis and necrosis, Annexin V / propidium iodide) of patterned HUVE cells; format: cell-based, human; conditions: after 7 days of cell adhesion
Source text: Retaining cell viability after cell adhesion is essential for cell biology studies and biomedical applications such as cell-based sensors and drug screening microarrays. The viability of cells patterned on the three model platforms were studied with an apoptosis assay noted in EXAMPLE section. FIGS. 10A-F show fluorescence images of HUVE cells on cell patterning platforms immobilized with (a) fibronectin, (b) REDVY peptide, and (c) KREDVY peptide after 7 days of cell adhesion. Cells on the platform with chemically bound fibronectin appeared apoptotic and necrotic (FIGS. 10A and 10D). This might be caused by the competitive adhesion of multiple cells on a limited surface area of the gold square-based cell adhesion regions, hindering individual cell growth and survival. […] Because the conformation of fibronectin protein on the gold square-based cell adhesion regions varies from site to site, the degree of interactions of HUVE cells with the binding peptides of the protein and the number of cells attached on each site can differ from pattern to pattern.
VYBRANT apoptosis assay allows for the simultaneous visualization of viable, necrotic, and apoptotic cells on substrates. Necrosis results from direct cell damage; apoptosis is genetically-programmed cell death in which cells effectively commit suicide. […] The substrates were incubated with 100 μL of Annexin V and 2 μL of PI solution for 15 minutes at room temperature, washed twice with binding buffer, and imaged with a fluorescence microscope.

[3] = tested on: RAW264.7 cells (murine monocyte/macrophage); assay: Synchrotron FTIR spectromicroscopy of patterned macrophage cells exposed to LPS; format: cell-based; conditions: for peak of amide I group post-exposure: single cells, eight electrodes of two substrates
Source text: Cells in an isolated state (e.g., one cell on each microelectrode) generally respond differently to an external stimulus than when they are in a communicating state (e.g., a cluster of cells on a microelectrode).
IR spectra and optical reflectance DIC images were acquired from cells on the patterned substrates with single or a group of macrophage cells on each electrode both before and after cellular exposure to LPS. Synchrotron FTIR spectra were acquired from cell-patterned surfaces with a Nicolet Magna 760 FTIR bench and a Nicolet Nic-Plan™ IR microscope equipped with a computer-controlled x-y-z sample stage (via Nicolet Atlμs™ and OMNIC software) and an MCT-A detector at Beamline 1.4.3 of the Advanced Light Source (ALS) in Lawrence Berkeley National Laboratory, Berkeley. C A. Martin, M. C. and McKinney, R. W., Proceed. Mater. Res. Soc. 524, 11-15, 1998; C A. Martin, M. C. and McKinney, R. W., Proceedings of the Low Energy Electrodynamics in Solids, '99 Conference, Pécs, Hungary, Special Issue of Ferroelectrics, 249, 1-10, 2001. In order to align the incident IR beam onto the substrate, an IR map (with 2-10 μm step size in x-y plane) was acquired around a gold electrode for a full IR range of 400-10,000 wave numbers. Under this condition, the whole spectrum appeared as a broad peak and an intensity profile was given for the mapped region. The x, y positions were adjusted so that the highest intensity region of the beam was aligned with the center of the gold electrode. The samples were measured at wave numbers of 650-10,000 cm^−1 using an XT-KBr beamsplitter and an MCT detector. The synchrotron infrared light is focused to a diffraction-limited spot size with a wavelength-dependent diameter of approximately 3-10 μm across the mid-IR range of interest. Carr, G. L. Review of Scientific Instruments 72, 1613-1619, 2001; and Dumas, P., et al., Faraday Discussions 126, 289-302, 2004. An on-stage temperature controlled mini incubator was used to maintain a proper environment for cellular analysis. Prior to infrared analysis, dead and loosely bound cells were removed from the substrate by three PBS washes (to eliminate the possible interference of dead and loosely bound cells to the real-time signals generated by live cells), the cell culture medium was replaced with fresh sterile medium, and the substrate covered with a layer of the medium was transferred to the mini incubator. The spectra were acquired in less than 10 minutes following the sample transfer to ensure cell viability and to minimize possible interference from environmental changes. Synchrotron FTIR spectra of 128 scans at a resolution of 8 cm^−1 were acquired from individual electrodes patterned with cells. Background signals were collected from the silicon oxide surface of the same substrate right before the data collection. […] All spectra were baseline-corrected and normalized to account for the continuous decay of the synchrotron beam in the storage ring. An appropriately scaled water vapor spectrum was subtracted from the spectra of cells. The spectra obtained with conventional FTIR were acquired from cell-patterned surfaces using a Thermo-Electron Nexus 870 bench and a Thermo-Electron Continuum infrared microscope with an MCT-A detector at Beamline 1.4.4 of the ALS under the same conditions set for the synchrotron measurements, except that an aperture size of 90 μm×90 μm were employed to maximize the signal intensity.

[4] = tested on: RAW264.7 cells (murine monocyte/macrophage); assay: DIC reflectance microscopy of macrophage morphology after LPS exposure; format: cell-based; conditions: LPS 0.1, 1.0 and 10 μg/mL, 21 hours
Source text: Cell-cultured surfaces were examined with a differential interference contrast (DIC) reflectance microscope (Nikon E800 Upright Microscope, NY, N.Y.) equipped with DIC-20× (N.A. 0.46) and DIC-50× (N.A. 0.8) objectives. Images were acquired with a Coolsnap camera (series A99G81021, Roper Scientific Inc., AZ, USA) attached to the microscope and a computer. […] FIGS. 12A, 12C, and 12E are optical DIC images of electrodes with a single cell, double cells, and triple cells, respectively.

[5] = LPS 1 μg/mL, 21 hours, 10 μm×10 μm electrodes, mean±S.D. of four electrodes

Fibronectin
% Cell Coverage [1]: 83.47 ± 3.20% | % Ratio of single-cell sites/total cell sites [1]: 27.41 ± 3.64% | cell apoptosis / viability (Annexin V) [2]: apoptotic | cell necrosis (propidium iodide) [2]: necrotic

Arg-Glu-Asp-Val-Tyr (REDVY)
% Cell Coverage [1]: 56.28 ± 3.03% | % Ratio of single-cell sites/total cell sites [1]: 62.25 ± 3.23% | cell apoptosis / viability (Annexin V) [2]: became apoptotic at day 7 | cell necrosis (propidium iodide) [2]: No cell necrosis was observed

KREDVY
% Cell Coverage [1]: 78.40 ± 3.96% | % Ratio of single-cell sites/total cell sites [1]: 72.17 ± 2.49% | cell apoptosis / viability (Annexin V) [2]: remained viable throughout 7 days | cell necrosis (propidium iodide) [2]: No cell necrosis was observed

lipopolysaccharide [LPS]
Amide I wave number, Double cells [3, 5]: 1665 ± 2.6 cm⁻¹ | Amide I wave number, Single cell [3, 5]: 1661 ± 1.6 cm⁻¹ | Amide I wave number, Triple cells [3, 5]: 1658 ± 3.4 cm⁻¹ | peak of amide I group post-exposure ([3]; 0.1 μg/mL LPS, 21 hours): 1659 ± 1.7 cm⁻¹ | peak of amide I group post-exposure ([3]; 1 μg/mL LPS, 21 hours): 1661 ± 1.0 cm⁻¹ | peak of amide I group post-exposure ([3]; 10 μg/mL LPS, 21 hours): 1676 ± 1.0 cm⁻¹ | shift in wave number ([3]; single-cell platform, LPS 1.0 μg/mL): 30 cm⁻¹ | cell morphology [4]: enlarged, dendritic-like shape
